The subject of experiment [1] is LNCaP (human prostate carcinoma). Nature of the experiment: Cell proliferation (MTS) assay, LNCaP. The class given is cell-based. The settings on record: Homo sapiens, LNCaP, 72 h, Table 2; three days treatment. A digest of the protocol:
(§1)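 Cells plated at about 3000 per well in RPMI-1640/10% FBS were dosed with compound one day later. Viability was read by MTS conversion (absorbance 490 nm, 1–2 h) three days after treatment began. Effect is expressed as percent of vehicle-treated growth on the same plate.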

Experiment [2] deals with T1, PI3K.
T1 construct: PI3K FP IC50
Nature of the experiment: Fluorescence polarization assay for PI3K. The settings on record: Table 2. It is filed as biochemical. On the procedure: This assay is used to determine the IC50 of compounds of the present invention as it identifies inhibitors of PI3 kinase by measuring inhibition.
The assay is run by placing 5 μL of diluted enzyme per well, then 5 μL of diluted compound (or 9.5 μL enzyme then 0.5 μL compound in DMSO) is added and mixed. Then, 10 μL substrate is added to start the reaction. The samples are incubated 30-60 minutes, then the reaction is stopped by adding 20 μL stop/detector mix.
PI3K is diluted with reaction buffer (e.g., 5 μL or 7.5 μL PI3K into 620 μL reaction buffer), and 5 μL of diluted enzyme is used per well. 5 μL reaction buffer or drug diluted in buffer (e.g., 4 μL/100 so final DMSO is 1% in reaction) is added to each. The samples are mixed by pipetting up and down. Alternatively, the enzyme can be diluted to 1215 μL. In this case 9.8 μL is added per well and 0.2 μL compound is added in DMSO.
To prepare 1 mL of substrate solution, 955 μL reaction buffer, 40 μL PIP2, and 2.5 μL ATP are mixed. 10 μL of substrate is added to each well to start the reaction.
Stop/detector mix is prepared by mixing 4 μL Red detector and 1.6 μL or 2.0 μL GST-GRP with 1 mL Stop buffer, which results in 10 nM probe and 70 nM GST-GRP). 20 μL of the stop/detector mix is added to each well to stop the reaction. The plates are read after 30-90 minutes keeping the red probe solutions dark.
For the zero time point, stop/detector mix is added to the enzyme just before adding substrate. For an extra control, stop/detector mix is added to buffer (no enzyme) and substrate or to just buffer (no substrate).
The recommended reaction has 0.06 μL per 20 μL (0.015 μg/20 μL) or 0.01125 μg/15 μL or 0.75 μg/mL.
Plates are read on machines with filters for Tamra. The units are mP with no enzyme controls reading app 190-220 mP units. Fully active enzyme reduces fluorescence polarization down to 70-100 mP after 30 minutes. An active cpd raises the mP values halfway to control or to 120-150 mP units.
On the technique in general: Fluorescence polarisation rises when a labelled molecule tumbles more slowly, as on binding a larger partner.

Experiment [3] has as its system phosphor-AKT (S473) in Rat1 cells. Nature of the experiment: Rat1-IGF1 assay (IGF-1 induced phospho-AKT immunoblot). The class given is cell-based, rat. The settings on record: Rattus norvegicus, Table 2. On the procedure: Rat1 cells are plated in 6-well culture plates and serum-starved for 24 hours. Serum-starved cells are treated either with control vehicle or with various concentrations of 17-HWT for 2 hours, stimulated by IGF-1 (100 ng/mL) for 30 minutes. Total cellular lysates are prepared using NuPAGE-LDS sample buffer (Invitrogen), sonicated and then clarified by centrifugation. Equal amounts of proteins are subject to immunoblotting analysis using NuPAGE electrophoresis system and probed with phosphor-AKT (S473), total AKT antibodies (Signaling Technology).

Experiment [4] relates to MDA468 (human breast cancer cell). The experiment can be described thus: Cell proliferation (MTS) assay, MDA468. The class given is cell-based. The settings on record: Homo sapiens, 72 h, Table 2; three days treatment. A digest of the protocol:
as §1

In experiment [5] the target is T2, Human TOR (Homo sapiens, UniProt P42345).
T2 construct: FLAG
The experiment can be described thus: Human TOR (mTOR) kinase assay, DELFIA format. It is filed as biochemical. The settings on record: Table 2. A digest of the protocol: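 Purified FLAG-TOR (800 ng/mL) phosphorylates His6-S6K ([…]) with […] ATP in Hepes pH 7.4 buffer containing MnCl2, 2 h at room temperature. Phospho-Thr389 S6K detected by DELFIA using Europium-labelled anti-P(T389)-p70S6K antibody; enzyme inhibition calculated from signal.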

The values that follow come from patent publication US7666901B2, “Analogs of 17-hydroxywortmannin as PI3K inhibitors” (Wyeth, priority 2004, dated 2010).

pIC50: −log10 of the molar value. Converted amounts (≈) assume the structure as drawn.

Broadly, the IC50 is the concentration at which inhibition is half-maximal. Broadly, the pIC50 is the IC50 on a negative log10 scale, so that one unit is a factor of ten. A lower pIC50 goes with a high IC50. Consider `COCC1OC(=O)C(=CN2CCC(=O)CC2)C2=C(O)C(=O)C3=C(C(OC(C)=O)CC4(C)C(O)CCC34)C21C` (centres unmarked) [Compound 44, Acetic acid 6,17-dihydroxy-1-methoxymethyl-10,13-dimethyl-3,7-dioxo-4-(4-oxo-piperidin-1-ylmethylene)-1,3,4,7,10,11,12,13,14,15,16,17-dodecahydro-2-oxa-cyclopenta[a]phenanthren-11-yl ester], for which the IC50 turned out to be 0.37 µg/mL (≈ 0.699 µM) in experiment [1], 0.02 µg/mL (≈ 0.0378 µM) in experiment [3] and 3 µg/mL (≈ 5.66 µM) in experiment [4]. Further, the pIC50 in experiment [2] was 7.22; in experiment [5] it was 5.95.
`CCN(C=C1C(=O)OC(COC)C2(C)C3=C(C(=O)C(O)=C12)C1CCC(O)C1(C)CC3)CCN(C)C` (centres unmarked) [Compound 45, 4-{[(2-Dimethylamino-ethyl)-ethyl-amino]-methylene}-6,17-dihydroxy-1-methoxymethyl-10,13-dimethyl-10,11,12,13,14,15,16,17-octahydro-1H,4H-2-oxa-cyclopenta[a]phenanthrene-3,7-dione]: the IC50 in experiment [1] was determined as 0.65 µg/mL (≈ 1.33 µM); in experiment [3], 0.1 µg/mL (≈ 0.205 µM); in experiment [4], 5 µg/mL (≈ 10.2 µM). The pIC50 in experiment [2] was 6.43; in experiment [5] it was below 4.69.
For `COCC1OC(=O)C(=CN2CCOCC2)C2=C(O)C(=O)C3=C(C(OC(C)=O)CC4(C)C(O)CCC34)C21C` (centres unmarked) [Compound 48, Acetic acid 6,17-dihydroxy-1-methoxymethyl-10,13-dimethyl-4-morpholin-4-ylmethylene-3,7-dioxo-1,3,4,7,10,11,12,13,14,15,16,17-dodecahydro-2-oxa-cyclopenta[a]phenanthren-11-yl ester], the IC50 came out at 0.5 µg/mL (≈ 0.966 µM) in experiment [1], 0.02 µg/mL (≈ 0.0386 µM) in experiment [3] and 3 µg/mL (≈ 5.8 µM) in experiment [4]. Besides, the pIC50 in experiment [2] is 7.44; in experiment [5], 6.08.
Consider `CCN(/C=C1/C(=O)O[C@H](COC)[C@@]2(C)C1=C(O)C(=O)C1=C2[C@H](O)C[C@]2(C)[C@@H](O)CC[C@@H]12)CC` [Compound 50, (1E,4S,4aR,5R,6aS,7S,9aR)-1-[(diethylamino)methylene]-5,7,11-trihydroxy-4-(methoxymethyl)-4a,6a-dimethyl-4a,5,6,6a,7,8,9,9a-octahydroindeno[4,5-h]isochromene-2,10(1H,4H)-dione], for which the IC50 in experiment [1] is 0.25 µg/mL (≈ 0.542 µM); in experiment [3] it was above 0.1 µg/mL; in experiment [4] it was 2.5 µg/mL (≈ 5.42 µM). For the same molecule, in experiment [2], the pIC50 is 5.12.
On to `CCN(C=C1C(=O)OC(COC)C2(C)C1=C(O)C(=O)C1=C2C(OC(C)=O)CC2(C)C(O)CCC12)CCN(C)C` (centres unmarked) [Compound 46, Acetic acid 4-{[(2-dimethylamino-ethyl)-ethyl-amino]-methylene}-6,17-dihydroxy-1-methoxymethyl-10,13-dimethyl-3,7-dioxo-1,3,4,7,10,11,12,13,14,15,16,17-dodecahydro-2-oxa-cyclopenta[a]phenanthren-11-yl ester], for which the IC50 in experiment [1] came out at 0.65 µg/mL (≈ 1.19 µM); in experiment [3], 0.02 µg/mL (≈ 0.0366 µM); in experiment [4], 3.3 µg/mL (≈ 6.04 µM). For the same molecule, the pIC50 was 8.29 in experiment [2] and 6.06 in experiment [5].
The matching figures for `COCC1OC(=O)C(=CN2CCC(N3CCCCC3)CC2)C2=C(O)C(=O)C3=C(C(OC(C)=O)CC4(C)C(O)CCC34)C21C` (centres unmarked) [Compound 47, Acetic acid 4-[1,4′]bipiperidinyl-1′-ylmethylene-6,17-dihydroxy-1-methoxymethyl-10,13-dimethyl-3,7-dioxo-1,3,4,7,10,11,12,13,14,15,16,17-dodecahydro-2-oxa-cyclopenta[a]phenanthren-11-yl ester]: 0.9 µg/mL (≈ 1.5 µM), 0.05 µg/mL (≈ 0.0835 µM), 5.8 µg/mL (≈ 9.69 µM), 7.20 and 6.25.
